The source of these data is ChEMBL document CHEMBL3045536, “Prediction of antimalarial activity of some cyclic peroxy ketals using physico-chemical and topological indices” (2012).

Molecules are shown by their SMILES.

The subject of this test is Plasmodium falciparum. Nature of the test: Antimalarial activity against Plasmodium falciparum. It is filed as functional.
As for `COc1ccc(C2(OC)C=CC(C3CCCCC3)(C3CCCCC3)OC2)cc1` (centres undefined), the logIC50 came out at 2.255. Next, `COc1ccc(C2(OC)C=CC(C3CCCCCC3)(C3CCCCCC3)OC2)cc1` (centres undefined): 2.322; `COc1cc(C2(OC)C=CC(C3CCCCCC3)(C3CCCCCC3)OC2)cc(OC)c1OC` (centres undefined): 2.079. Next, `COC1(c2ccc(OC(F)(F)F)cc2)C=CC(C2CCCCCC2)(C2CCCCCC2)OC1` (centres undefined): 1.785; `COC1(c2ccc(Cl)cc2)C=CC(C2CCCCCC2)(C2CCCCCC2)OC1` (centres undefined): 1.763; `COC1(c2ccc(F)cc2)C=CC(C2CCCCCC2)(C2CCCCCC2)OC1` (centres undefined): 1.929. Next, `COC1(c2ccc(SC)cc2)C=CC(C2CCCCCC2)(C2CCCCCC2)OC1` (centres undefined): 1.892; `COC1(c2ccc(S(C)(=O)=O)cc2)C=CC(C2CCCCCC2)(C2CCCCCC2)OC1` (centres undefined): 1.491. The compound `CCc1ccc(C2(OC)C=CC(C3CCCCCC3)(C3CCCCCC3)OC2)cc1` (centres undefined) displayed a logIC50 of 2.255. For `COC1(c2ccc(SC)cc2)C=CC(C2CCCCC2)(C2CCCCC2)OC1` (centres undefined), the logIC50 was found to be 2.204. Next, `COC1(c2ccc(S(C)(=O)=O)cc2)C=CC(C2CCCCC2)(C2CCCCC2)OC1` (centres undefined): 1.748; `COC1(c2ccc([N+](=O)[O-])cc2)C=CC(C2CCCCC2)(C2CCCCC2)OC1` (centres undefined): 1.663; `COC1(c2ccc(Cl)cc2)C=CC(C2CCCCC2)(C2CCCCC2)OC1` (centres undefined): 2. `COC1(c2ccc(F)cc2)C=CC(C2CCCCC2)(C2CCCCC2)OC1` (centres undefined) returned a logIC50 of 2.301.

In the case of `COC1(c2ccc(C(F)(F)F)cc2)C=CC(C2CCCCC2)(C2CCCCC2)OC1` (centres undefined), the logIC50 worked out at 2.146. Next, `COC1(c2ccccc2)C=CC(C)(C)OC1` (centres undefined): 3.041; `COC1(c2ccccc2)C=CC(C2CCCC2)(C2CCCC2)OC1` (centres undefined): 2.279; `COC1(c2ccccc2)C=CC(C2CCCCC2)(C2CCCCC2)OC1` (centres undefined): 2.447. `COC1(c2ccccc2)C=CC(C2CCCCCC2)(C2CCCCCC2)OC1` (centres undefined) showed a logIC50 of 2.342.
